Reference: patent publication US6900200B2, “Tricyclic hydroxy carboxamides and derivatives thereof tocolytic oxytocin receptor antagonists” (Wyeth, priority 2001, dated 2005)

melting point: 132 to 140 °C (dec.)
SMILES: COc1cc(C(=O)N2Cc3ccc(C(=O)N(C)C[C@H](O)[C@@H](O)[C@@H](O)[C@H](O)CO)n3Cc3ccccc32)ccc1-c1ccccc1C(F)(F)F [Example 23, 10-{[2-Methoxy-2′-trifluoromethyl-[1,1′-biphenyl]-4-yl]carbonyl}-N-methyl-N-[(2R,3S,4R,5S)-2,3,4,5,6-pentahydroxyhexyl]-10,11-dihydro-5H-pyrrolo[2,1-c][1,4]benzodiazepine-3-carboxamide]
